Test results reported in the NIST ThermoML archive (doi:10.1016/j.fluid.2008.03.004).

Test: xn = mol fraction of the nth substance listed
Settings: 101 kPa, Liquid; for speed of sound: Sing-around technique in a fixed-path interferometer

CCOC(C)(C)C [2-ethoxy-2-methylpropane] + Cc1ccc(C)cc1
Settings | mass density [kg/m3] | speed of sound [m/s]
288.15 K, x1 = 0.062 | 857.461 | 1332.5
288.15 K, x1 = 0.123 | 849.969 | 1315.3
288.15 K, x1 = 0.238 | 836.401 | 1283.6
288.15 K, x1 = 0.35 | 822.903 | 1252.6
288.15 K, x1 = 0.455 | 810.328 | 1223.7
288.15 K, x1 = 0.557 | 798.162 | 1195.8
288.15 K, x1 = 0.654 | 786.517 | 1169.2
288.15 K, x1 = 0.746 | 775.593 | 1144.4
288.15 K, x1 = 0.834 | 764.97 | 1120.8
288.15 K, x1 = 0.902 | 756.828 | 1102.5
288.15 K, x1 = 0.959 | 749.995 | 1087.2
288.15 K, x1 = 1 | 744.955 | 1076.4
290.65 K, x1 = 0.062 | 855.329 | 1321.8
290.65 K, x1 = 0.123 | 847.837 | 1304.4
290.65 K, x1 = 0.238 | 834.222 | 1272.7
290.65 K, x1 = 0.35 | 820.676 | 1241.5
290.65 K, x1 = 0.455 | 808.058 | 1212.6
290.65 K, x1 = 0.557 | 795.855 | 1184.6
290.65 K, x1 = 0.654 | 784.174 | 1158
290.65 K, x1 = 0.746 | 773.205 | 1133.1
290.65 K, x1 = 0.834 | 762.549 | 1109.4
290.65 K, x1 = 0.902 | 754.379 | 1091
290.65 K, x1 = 0.959 | 747.527 | 1076
290.65 K, x1 = 1 | 742.482 | 1065.1
293.15 K, x1 = 0.062 | 853.16 | 1311
293.15 K, x1 = 0.123 | 845.64 | 1293.7
293.15 K, x1 = 0.238 | 831.974 | 1261.7
293.15 K, x1 = 0.35 | 818.389 | 1230.6
293.15 K, x1 = 0.455 | 805.723 | 1201.5
293.15 K, x1 = 0.557 | 793.481 | 1173.4
293.15 K, x1 = 0.654 | 781.767 | 1146.8
293.15 K, x1 = 0.746 | 770.753 | 1121.7
293.15 K, x1 = 0.834 | 760.076 | 1098.1
293.15 K, x1 = 0.902 | 751.872 | 1079.6
293.15 K, x1 = 0.959 | 745.006 | 1064.5
293.15 K, x1 = 1 | 739.947 | 1053.7
295.65 K, x1 = 0.062 | 850.963 | 1300.3
295.65 K, x1 = 0.123 | 843.426 | 1282.9
295.65 K, x1 = 0.238 | 829.705 | 1250.9
295.65 K, x1 = 0.35 | 816.087 | 1219.6
295.65 K, x1 = 0.455 | 803.381 | 1190.5
295.65 K, x1 = 0.557 | 791.102 | 1162.2
295.65 K, x1 = 0.654 | 779.339 | 1135.5
295.65 K, x1 = 0.746 | 768.276 | 1110.5
295.65 K, x1 = 0.834 | 757.573 | 1086.7
295.65 K, x1 = 0.902 | 749.342 | 1068.2
295.65 K, x1 = 0.959 | 742.457 | 1053.1
295.65 K, x1 = 1 | 737.374 | 1042.2
298.15 K, x1 = 0.062 | 848.771 | 1289.8
298.15 K, x1 = 0.123 | 841.223 | 1272.5
298.15 K, x1 = 0.238 | 827.443 | 1240.2
298.15 K, x1 = 0.35 | 813.789 | 1208.9
298.15 K, x1 = 0.455 | 801.037 | 1179.6
298.15 K, x1 = 0.557 | 788.722 | 1151.4
298.15 K, x1 = 0.654 | 776.911 | 1124.5
298.15 K, x1 = 0.746 | 765.812 | 1099.4
298.15 K, x1 = 0.834 | 755.077 | 1075.5
298.15 K, x1 = 0.902 | 746.808 | 1057
298.15 K, x1 = 0.959 | 739.904 | 1041.9
298.15 K, x1 = 1 | 734.806 | 1031
300.65 K, x1 = 0.062 | 846.559 | 1279.4
300.65 K, x1 = 0.123 | 839.002 | 1262.1
300.65 K, x1 = 0.238 | 825.16 | 1229.7
300.65 K, x1 = 0.35 | 811.468 | 1198.2
300.65 K, x1 = 0.455 | 798.683 | 1168.9
300.65 K, x1 = 0.557 | 786.313 | 1140.5
300.65 K, x1 = 0.654 | 774.466 | 1113.6
300.65 K, x1 = 0.746 | 763.325 | 1088.4
300.65 K, x1 = 0.834 | 752.561 | 1064.5
300.65 K, x1 = 0.902 | 744.252 | 1045.9
300.65 K, x1 = 0.959 | 737.326 | 1030.6
300.65 K, x1 = 1 | 732.225 | 1019.8
303.15 K, x1 = 0.062 | 844.378 | 1269.2
303.15 K, x1 = 0.123 | 836.793 | 1251.8
303.15 K, x1 = 0.238 | 822.9 | 1219.2
303.15 K, x1 = 0.35 | 809.173 | 1187.7
303.15 K, x1 = 0.455 | 796.342 | 1158.2
303.15 K, x1 = 0.557 | 783.933 | 1129.8
303.15 K, x1 = 0.654 | 772.039 | 1102.8
303.15 K, x1 = 0.746 | 760.846 | 1077.5
303.15 K, x1 = 0.834 | 750.063 | 1053.5
303.15 K, x1 = 0.902 | 741.716 | 1034.8
303.15 K, x1 = 0.959 | 734.772 | 1019.6
303.15 K, x1 = 1 | 729.647 | 1008.6
305.65 K, x1 = 0.062 | – | 1258.9
305.65 K, x1 = 0.123 | – | 1241.4
305.65 K, x1 = 0.238 | – | 1208.8
305.65 K, x1 = 0.35 | – | 1177.1
305.65 K, x1 = 0.455 | – | 1147.5
305.65 K, x1 = 0.557 | – | 1119
305.65 K, x1 = 0.654 | – | 1091.9
305.65 K, x1 = 0.746 | – | 1066.6
305.65 K, x1 = 0.834 | – | 1042.5
305.65 K, x1 = 0.902 | – | 1023.8
305.65 K, x1 = 0.959 | – | 1008.5
305.65 K, x1 = 1 | – | 997.52
